Test results from ChEMBL document CHEMBL1909294, “Translating clinical findings into knowledge in drug safety evaluation--drug induced liver injury prediction system (DILIps)” (PLoS Comput Biol, 2011).

Experiments:
Hepatotoxicity [1] = system: Hepatotoxicity;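 on HepSE cholecystitis: Cholecystitis-related hepatic side effect score drawn from the DILIps (drug-induced liver injury prediction) training data set; call rule not given here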;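 on HepSE cirrhosis: cirrhosis hepatic side effect score taken from the DILIps (drug-induced liver injury prediction) training set; call rule not given here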;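 on HepSE hepatitis: Hepatitis-related hepatic side effect score taken from the training data of DILIps, a prediction system for drug-induced liver injury; call rule not given here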;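 on HepSE hepatomegaly: hepatic side effect score for hepatomegaly, taken from the training set of the DILIps drug-induced liver injury prediction system; call rule not given here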;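 on HepSE jaundice: Jaundice-related hepatic side-effect score drawn from the training data of the DILIps (drug-induced liver injury prediction system); call rule not given here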; on HepSE liver disease: call rule not given here;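 on HepSE liver fatty: hepatic side effect score for fatty liver, taken from the DILIps training set for predicting drug-induced liver injury; call rule not given here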
Hepatotoxicity [2] = system: Hepatotoxicity; remark: listed apart in the source;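 on HepSE cholecystitis: Cholecystitis-related hepatic side effect score drawn from the DILIps (drug-induced liver injury prediction) training data set; call rule not given here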;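 on HepSE cirrhosis: cirrhosis hepatic side effect score taken from the DILIps (drug-induced liver injury prediction) training set; call rule not given here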;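 on HepSE hepatitis: Hepatitis-related hepatic side effect score taken from the training data of DILIps, a prediction system for drug-induced liver injury; call rule not given here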;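 on HepSE hepatomegaly: hepatic side effect score for hepatomegaly, taken from the training set of the DILIps drug-induced liver injury prediction system; call rule not given here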;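 on HepSE jaundice: Jaundice-related hepatic side-effect score drawn from the training data of the DILIps (drug-induced liver injury prediction system); call rule not given here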; on HepSE liver disease: call rule not given here;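 on HepSE liver fatty: hepatic side effect score for fatty liver, taken from the DILIps training set for predicting drug-induced liver injury; call rule not given here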
Hepatotoxicity [3] = system: Hepatotoxicity; remark: listed apart in the source;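 on HepSE cholecystitis: Cholecystitis-related hepatic side effect score drawn from the DILIps (drug-induced liver injury prediction) training data set; call rule not given here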;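 on HepSE cirrhosis: cirrhosis hepatic side effect score taken from the DILIps (drug-induced liver injury prediction) training set; call rule not given here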;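 on HepSE hepatitis: Hepatitis-related hepatic side effect score taken from the training data of DILIps, a prediction system for drug-induced liver injury; call rule not given here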;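 on HepSE hepatomegaly: hepatic side effect score for hepatomegaly, taken from the training set of the DILIps drug-induced liver injury prediction system; call rule not given here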; on HepSE liver disease: call rule not given here;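 on HepSE liver fatty: hepatic side effect score for fatty liver, taken from the DILIps training set for predicting drug-induced liver injury; call rule not given here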
Hepatotoxicity [4] = system: Hepatotoxicity; remark: listed apart in the source;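 on HepSE cholecystitis: Cholecystitis-related hepatic side effect score drawn from the DILIps (drug-induced liver injury prediction) training data set; call rule not given here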;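 on HepSE cirrhosis: cirrhosis hepatic side effect score taken from the DILIps (drug-induced liver injury prediction) training set; call rule not given here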;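 on HepSE hepatitis: Hepatitis-related hepatic side effect score taken from the training data of DILIps, a prediction system for drug-induced liver injury; call rule not given here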;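 on HepSE hepatomegaly: hepatic side effect score for hepatomegaly, taken from the training set of the DILIps drug-induced liver injury prediction system; call rule not given here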; on HepSE liver disease: call rule not given here;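 on HepSE liver fatty: hepatic side effect score for fatty liver, taken from the DILIps training set for predicting drug-induced liver injury; call rule not given here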
Hepatotoxicity [5] = system: Hepatotoxicity; remark: listed apart in the source; on HepSE liver disease: call rule not given here
Hepatotoxicity [6] = system: Hepatotoxicity; remark: listed apart in the source; on HepSE liver disease: call rule not given here
Hepatotoxicity [7] = system: Hepatotoxicity; remark: listed apart in the source
Hepatotoxicity [8] = system: Hepatotoxicity; remark: listed apart in the source
Hepatotoxicity [9] = system: Hepatotoxicity; remark: listed apart in the source
Hepatotoxicity [10] = system: Hepatotoxicity; remark: listed apart in the source
Hepatotoxicity [11] = system: Hepatotoxicity; remark: listed apart in the source
Hepatotoxicity [12] = system: Hepatotoxicity; remark: listed apart in the source
Hepatotoxicity [13] = system: Hepatotoxicity; remark: listed apart in the source
Hepatotoxicity [14] = system: Hepatotoxicity; remark: listed apart in the source

Row | SMILES | HepSE_liver fatty (Hepatotoxicity [1]) | HepSE_liver disease (Hepatotoxicity [2]) | HepSE_hepatitis (Hepatotoxicity [3]) | HepSE_bilirubinemia (Hepatotoxicity [4]) | HepSE_cirrhosis (Hepatotoxicity [5]) | HepSE_cholecystitis (Hepatotoxicity [6]) | HepSE_hepatomegaly (Hepatotoxicity [7]) | HepSE_hepatic necrosis (Hepatotoxicity [8]) | HepSE_jaundice (Hepatotoxicity [9]) | HepSE_elevated liver function tests (Hepatotoxicity [10]) | HepSE_hepatic failure (Hepatotoxicity [11]) | HepSE_Combined Scores (Hepatotoxicity [12]) | HepSE_cholelithiasis (Hepatotoxicity [13]) | HepSE_liver function tests abnormal (Hepatotoxicity [14])
1 | NS(=O)(=O)c1cc2c(cc1Cl)NCNS2(=O)=O [HYDROCHLOROTHIAZIDE] | 0 | 0 | 0 | 0 | 0 | 0 | 0 | 0 | 1 | 0 | 0 | 1 | 0 | 0
2 | C[C@]12CCC(=O)C=C1CC[C@@H]1[C@@H]2[C@@H](O)C[C@@]2(C)[C@H]1CC[C@]2(O)C(=O)CO [HYDROCORTISONE] | 0 | 0 | 0 | 0 | 0 | 0 | 1 | 0 | 0 | 0 | 0 | 1 | 0 | 0
3 | NS(=O)(=O)c1cc2c(cc1C(F)(F)F)NCNS2(=O)=O [HYDROFLUMETHIAZIDE] | 0 | 0 | 0 | 0 | 0 | 0 | 0 | 0 | 1 | 0 | 0 | 1 | 0 | 0
4 | CN1CC[C@]23c4c5ccc(O)c4O[C@H]2C(=O)CC[C@H]3[C@H]1C5 [HYDROMORPHONE] | 0 | 0 | 0 | 0 | 0 | 1 | 1 | 0 | 1 | 0 | 1 | 5 | 0 | 1
5 | CCN(CCO)CCCC(C)Nc1ccnc2cc(Cl)ccc12 (configuration not stated) [HYDROXYCHLOROQUINE] | 0 | 0 | 0 | 0 | 0 | 0 | 0 | 0 | 0 | 0 | 1 | 1 | 0 | 0
6 | NC(=O)NO [HYDROXYUREA] | 0 | 0 | 0 | 0 | 0 | 0 | 0 | 0 | 0 | 0 | 0 | 0 | 0 | 0
7 | OCCOCCN1CCN(C(c2ccccc2)c2ccc(Cl)cc2)CC1 (configuration not stated) [HYDROXYZINE] | 0 | 0 | 0 | 0 | 0 | 0 | 0 | 0 | 0 | 0 | 0 | 0 | 0 | 0
8 | CCCCCN(C)CCC(O)(P(=O)(O)O)P(=O)(O)O [IBANDRONIC ACID] | 0 | 0 | 0 | 0 | 0 | 0 | 0 | 0 | 0 | 0 | 0 | 0 | 0 | 0
9 | CC(C)Cc1ccc(C(C)C(=O)O)cc1 (configuration not stated) [IBUPROFEN] | 0 | 0 | 1 | 0 | 0 | 0 | 0 | 1 | 1 | 0 | 1 | 5 | 0 | 1
10 | CCCCCCCN(CC)CCCC(O)c1ccc(NS(C)(=O)=O)cc1 (configuration not stated) [IBUTILIDE] | 0 | 0 | 0 | 0 | 0 | 0 | 0 | 0 | 0 | 1 | 0 | 1 | 0 | 0
11 | CC(=O)[C@]1(O)Cc2c(O)c3c(c(O)c2[C@@H](O[C@H]2C[C@H](N)[C@H](O)[C@H](C)O2)C1)C(=O)c1ccccc1C3=O [IDARUBICIN] | 0 | 0 | 0 | 0 | 0 | 0 | 0 | 0 | 0 | 0 | 0 | 0 | 0 | 0
12 | O=c1[nH]c(=O)n([C@H]2C[C@H](O)[C@@H](CO)O2)cc1I [IDOXURIDINE] | 0 | 0 | 0 | 0 | 0 | 0 | 0 | 0 | 0 | 0 | 0 | 0 | 0 | 0
13 | O=P1(NCCCl)OCCCN1CCCl (configuration not stated) [IFOSFAMIDE] | 0 | 0 | 0 | 0 | 0 | 0 | 0 | 0 | 0 | 0 | 0 | 0 | 0 | 0
